Laboratory results taken from BindingDB's records for doi:10.1016/j.ejmech.2013.04.056 (Jamia Hamdard (Hamdard University), 2013).

Molecular target: T1, Prostaglandin G/H synthase 1 (Ovis aries, UniProt P05979)
T1 sequence (P05979 whole entry): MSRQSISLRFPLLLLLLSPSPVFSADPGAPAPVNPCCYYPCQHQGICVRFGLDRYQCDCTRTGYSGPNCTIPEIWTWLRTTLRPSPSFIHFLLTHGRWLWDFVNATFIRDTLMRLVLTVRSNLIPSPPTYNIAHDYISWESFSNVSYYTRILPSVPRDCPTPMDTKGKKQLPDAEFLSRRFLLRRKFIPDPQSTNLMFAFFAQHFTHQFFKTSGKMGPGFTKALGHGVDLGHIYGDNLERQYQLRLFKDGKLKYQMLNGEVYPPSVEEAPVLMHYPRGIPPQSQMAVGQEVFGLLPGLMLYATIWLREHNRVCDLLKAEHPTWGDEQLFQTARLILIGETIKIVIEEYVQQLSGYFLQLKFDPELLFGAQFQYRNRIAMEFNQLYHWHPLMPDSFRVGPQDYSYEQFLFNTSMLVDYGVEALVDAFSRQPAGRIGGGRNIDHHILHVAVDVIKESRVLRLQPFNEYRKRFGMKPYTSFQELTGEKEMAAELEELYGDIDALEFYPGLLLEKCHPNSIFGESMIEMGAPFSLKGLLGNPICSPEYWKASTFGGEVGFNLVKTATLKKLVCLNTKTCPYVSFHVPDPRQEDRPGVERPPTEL
Assay: Inhibition of ovine COX1

IC50: 87.5 µM
Structure (SMILES): COc1cc(/C=C/C(=O)c2c(O)cc(C)c(Cl)c2C)cc(OC)c1OC
